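Growth conditions: 96-well plates. Treatment: test compound, 48 hours, 5 concentrations. Analysis: linear interpolation between bracketing concentrations; unreached endpoints set to highest concentration. At the GI50, growth is halved.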 The source made the active and inactive calls. Cut-off read from the data, not from the text of the source: active = GI50 up to about 1.1 µM and inactive = higher.
Key:
Test in all cases: NCI tumour cell line growth inhibition, 48 h
[1] = test system: A549
[2] = test system: CCRF-CEM
[3] = test system: HOP-62
[4] = test system: KM12
[5] = test system: LOX IMVI
[6] = test system: M14
[7] = test system: NCI-H23
[8] = test system: NCI-H522
[9] = test system: OVCAR-5
[10] = test system: RXF 393
[11] = test system: SF-295
[12] = test system: SK-MEL-28
[13] = test system: SW-620
[14] = test system: TK-10
[15] = test system: U-251
[16] = test system: SK-MEL-5

Measured: GI50

Nc1nc(-c2ccccc2)cc(-c2ccccc2O)n1
inactive: [1] 34.6 µM | [2] 34 µM | [3] 25.1 µM | [4] 23.9 µM | [5] 31.8 µM | [6] 81.1 µM | [7] 43.3 µM | [8] 22.9 µM | [9] 32.8 µM | [10] 27.3 µM | [11] 71.6 µM | [12] 57.1 µM | [13] 41.1 µM | [14] 46.7 µM | [15] 45.2 µM

CCc1ccccc1NC(=O)/C(=N/O)C(C)=O
inactive: [1] > 100 µM | [2] > 100 µM | [3] > 100 µM | [4] > 100 µM | [5] > 100 µM | [6] > 100 µM | [7] > 100 µM | [8] > 100 µM | [10] > 100 µM | [11] > 100 µM | [12] > 100 µM | [16] > 100 µM | [13] > 100 µM | [14] > 100 µM | [15] > 100 µM

O=C(Cc1nc2ccccc2s1)C(=O)Nc1cccc(Cl)c1
inactive: [1] > 100 µM | [2] > 100 µM | [3] > 100 µM | [4] > 100 µM | [5] > 100 µM | [6] > 100 µM | [7] > 100 µM | [8] > 100 µM | [9] > 100 µM | [10] > 100 µM | [11] > 100 µM | [12] > 100 µM | [16] > 100 µM | [13] > 100 µM | [14] > 100 µM | [15] > 100 µM

Cc1nc2sccn2c1C(=O)NC(=O)Nc1ccc(Cl)cc1
inactive: [1] 57.4 µM | [2] > 100 µM | [3] 41.3 µM | [4] > 100 µM | [5] > 100 µM | [6] > 100 µM | [7] 35.7 µM | [8] 57 µM | [9] > 100 µM | [10] 37.8 µM | [11] 70.8 µM | [12] > 100 µM | [16] > 100 µM | [13] > 100 µM | [14] 30.9 µM | [15] 50.5 µM

O=CC1=CCCC2(C1)OCCO2
inactive: [1] > 100 µM | [2] > 100 µM | [3] > 100 µM | [4] > 100 µM | [5] > 100 µM | [6] > 100 µM | [7] > 100 µM | [8] > 100 µM | [10] > 100 µM | [11] > 100 µM | [12] > 100 µM | [16] > 100 µM | [13] > 100 µM | [14] > 100 µM | [15] > 100 µM

N#CC(C(=O)/C(=N/NC(=O)c1ccccc1O)C(C#N)c1ccc(Br)cc1)c1ccc(Br)cc1 (stereo not given)
inactive: [1] 14.2 µM | [2] 2.23 µM | [3] 14.4 µM | [4] 12.9 µM | [5] 7.82 µM | [6] 14.3 µM | [7] 4.74 µM | [8] 11.4 µM | [9] 15.7 µM | [10] 4.71 µM | [11] 14.5 µM | [12] 13.8 µM | [16] 9.55 µM | [13] 4.02 µM | [14] 24.4 µM | [15] 11.6 µM

CCOC(=N)CC(=O)Nc1cccc(Cl)c1
inactive: [1] > 100 µM | [2] > 100 µM | [3] > 100 µM | [4] > 100 µM | [5] > 100 µM | [6] > 100 µM | [7] 4.9 µM | [8] > 100 µM | [9] > 100 µM | [10] > 100 µM | [11] > 100 µM | [12] > 100 µM | [16] > 100 µM | [13] > 100 µM | [14] > 100 µM | [15] > 100 µM

Cc1cccc(-c2nnc3s/c(=C\c4ccc5c(c4)OCO5)c(=O)n23)c1
inactive: [1] > 100 µM | [2] > 100 µM | [3] > 100 µM | [4] > 100 µM | [5] > 100 µM | [6] > 100 µM | [7] > 100 µM | [8] > 100 µM | [9] > 100 µM | [10] > 100 µM | [11] > 100 µM | [12] > 100 µM | [16] > 100 µM | [13] > 100 µM | [14] > 100 µM | [15] > 100 µM

COc1cccc2nc3c(C(=O)NCCN(C)C)cccc3nc12
inactive: [1] 7.35 µM | [2] 5.35 µM | [3] 11.4 µM | [4] 7.19 µM | [5] 4.2 µM | [6] 13.4 µM | [7] 11.8 µM | [8] 11.9 µM | [9] 15.9 µM | [10] 11.6 µM | [11] 10.1 µM | [12] 13.8 µM | [16] 11.8 µM | [13] 5.42 µM | [14] 11 µM | [15] 12.6 µM

NC(=O)C(c1ccccc1)N1CCOCC1 (stereo not given)
inactive: [1] > 100 µM | [2] > 100 µM | [3] > 100 µM | [4] > 100 µM | [5] > 100 µM | [6] > 100 µM | [7] > 100 µM | [8] > 100 µM | [9] > 100 µM | [10] > 100 µM | [11] > 100 µM | [12] > 100 µM | [16] > 100 µM | [13] > 100 µM | [14] > 100 µM | [15] > 100 µM

Nc1c2ccccc2nc2c(C(=O)Nc3ccc(S(N)(=O)=O)cc3)cccc12
inactive: [1] > 100 µM | [2] 12.5 µM | [3] > 100 µM | [4] 32.1 µM | [5] 40.1 µM | [6] > 100 µM | [7] > 100 µM | [8] 21.8 µM | [9] > 100 µM | [10] > 100 µM | [11] > 100 µM | [12] > 100 µM | [16] 86.3 µM | [13] 66.2 µM | [14] > 100 µM | [15] 49 µM

[N-]=[N+]=C1C(=O)C2CC3CC1CC2C3 (stereo not given)
inactive: [1] > 100 µM | [2] > 100 µM | [3] > 100 µM | [4] > 100 µM | [5] > 100 µM | [6] > 100 µM | [7] > 100 µM | [8] > 100 µM | [9] > 100 µM | [10] > 100 µM | [11] > 100 µM | [12] > 100 µM | [16] > 100 µM | [13] 81.1 µM | [14] > 100 µM | [15] > 100 µM

CC1=C(C(=O)Nc2ccccc2C)C(c2ccccc2)C(C(=O)Nc2ccccc2C)=C(C)N1
inactive: [1] 59 µM | [2] 20.9 µM | [3] 40.6 µM | [4] 26.6 µM | [5] 16 µM | [6] 39.4 µM | [7] 23.7 µM | [8] 28.6 µM | [9] > 100 µM | [10] 23.9 µM | [11] 36.5 µM | [12] > 100 µM | [16] 29.2 µM | [13] 30.5 µM | [14] 98.6 µM | [15] 37.2 µM

Reference: ChEMBL document CHEMBL1201862, “PubChem BioAssay data set” (2004)
